The subject of assay [1] is all gram positive organisms tested. To be noted: against all gram positive organisms tested. The procedure: (§1) When surfactants are used in detergent formulations, antibiotic activity is an important trait. The antibiotic activity of the surfactants prepared from the saccharides glucose, maltose, and lactose, and 2-undecanone were measured against several microorganisms of interest in the food, human health, and agricultural areas. […] The CMC values for the β-C-glycoside 2-aminoundecanes were 0.1-5.5 mM.
(§2) Summary: β-C-glycoside ketone derivatives of saccharides glucose, lactose, and maltose were converted to amines via a reductive amination using 2 wt % Rh/HMS (Rh/C or Rh/Al2O3 can be used) in ammoniacal methanol under about 500 psi H2 (pressure can be about 350 psi). The amines were isolated and then these molecules were used as the amine in the reductive amination of 2-undecanone prepared from the seed oil of Cuphea. The resulting β-C-glycoside 2-aminoundecanes were characterized by MALDI-TOF mass spectrometry, 2D nmr, and CHN analyses. The detergency of the products was measured by fluorescence detection to measure the critical micelle concentration.

The subject of assay [2] is Envinia amylovora. The assay is described as follows: Antimicrobial activity. In kind it is cell-based. To be noted: gram negative Erwinia. The procedure:
as §1, §2

In assay [3] the test system is Escherichia coli. The assay is described as follows: Antimicrobial activity. In kind it is cell-based. To be noted: gram negative Escherichia. The procedure:
as §1, §2

The test system of assay [4] is Streptococcus mutans. To be noted: Watanabe et al. 2000; cited from earlier work.
Assay [5] relates to B. cereus. To be noted: Staron et al. 2018; cited from earlier work.
Assay [6] has as its system Bacillus subtilis. To be noted: Zhao et al. 2015; cited from earlier work.
The test system of assay [7] is Escherichia coli. To be noted: Zhao et al. 2015; cited from earlier work.

Values after ≈ are worked out from the molar mass of the structure shown. Like-named read-outs stand apart in the source and are kept apart here.

For `CCCCCCCCCC(C)NC(C)C[C@@H]1O[C@H](CO)[C@@H](O)[C@H](O)[C@H]1O` (some centres unmarked) [glucose derivative, Glucose C-glycoside 2-aminoundecane], in assay [1], the minimum bactericide concentration was determined as 620 µM (≈ 233 µg/mL) and the minimum inhibitory concentration amounted to 310 µM (≈ 116 µg/mL). The molecule also showed an MIC in assay [2] of 620 µM (≈ 233 µg/mL). For the same molecule, the MIC in assay [3] is 620 µM (≈ 233 µg/mL).
Take Galactose laurate: the MIC in assay [4] was 140 µM.
dodecanoyl lactose: in assay [5], the minimal inhibitory concentration (MIC) was 5900 µM.
As for sucrose caprate, the results for the MIC in assay [6] and in assay [7] were 2500 µM and 10000 µM, respectively.

A word on the MIC: it is the lowest concentration found to suppress growth.

The values are drawn from patent US11192913B2, “C-glycoside amine derivatives and methods of making” (The United States of America, as Represented by the …, priority 2020, dated 2021).
